Toxic doses and inconclusive results are not listed.
System: P388 leukemia ip, CD2F1 mice, survival T/C
Assay: NCI In Vivo Anticancer Drug Screen. Data for tumor model P388 Leukemia (intraperitoneal) in CD2F1 (CDF1) mice
Conditions: endpoint: median survival time, higher = longer survival
Procedure, shortened: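 Mice carrying the transplanted tumor received test compound or vehicle. Survival was recorded in each group, and the value is the treated-group measurement divided by that of the vehicle-treated control group.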

O=C1NC(c2cccc3ccccc23)Nc2ccccc21 (configuration not stated)
T/C (dose: 8.0 mg/kg/injection, schedule: Q03HX008 (ip), vehicle: Klucel (hydroxypropylcellulose) (HPC)): 118 % of control | T/C (dose: 8.0 mg/kg/injection, schedule: Q03HX008 (ip), vehicle: other): 109 % of control | T/C (dose: 8.0 mg/kg/injection, schedule: Q03HX008 (oral), vehicle: Klucel (hydroxypropylcellulose) (HPC)): 99 % of control | T/C (dose: 8.0 mg/kg/injection, schedule: Q03HX008 (oral), vehicle: other): 100 % of control | T/C (dose: 8.0 mg/kg/injection, schedule: Q03HX016 (ip), vehicle: Klucel (hydroxypropylcellulose) (HPC)): 124 % of control | T/C (dose: 8.0 mg/kg/injection, schedule: Q03HX016 (ip), vehicle: other): 101 % of control | T/C (dose: 8.0 mg/kg/injection, schedule: Q03HX016 (oral), vehicle: Klucel (hydroxypropylcellulose) (HPC)): 100 % of control | T/C (dose: 8.0 mg/kg/injection, schedule: Q03HX016 (oral), vehicle: other): 114 % of control | T/C (dose: 8.0 mg/kg/injection, schedule: Q03HX024 (ip), vehicle: other): 124 % of control | T/C (dose: 8.0 mg/kg/injection, schedule: Q03HX024 (oral), vehicle: Klucel (hydroxypropylcellulose) (HPC)): 101 % of control | T/C (dose: 8.0 mg/kg/injection, schedule: Q03HX024 (oral), vehicle: other): 108 % of control | T/C (dose: 16.0 mg/kg/injection, schedule: Q01DX009 (ip), vehicle: Klucel (hydroxypropylcellulose) (HPC)): 155 % of control | T/C (dose: 16.0 mg/kg/injection, schedule: Q01DX009 (ip), vehicle: other): 108 % of control | T/C (dose: 16.0 mg/kg/injection, schedule: Q01DX009 (oral), vehicle: Klucel (hydroxypropylcellulose) (HPC)): 100 % of control | T/C (dose: 16.0 mg/kg/injection, schedule: Q01DX009 (oral), vehicle: other): 100 % of control | T/C (dose: 16.0 mg/kg/injection, schedule: Q01DX009 (sc), vehicle: Klucel (hydroxypropylcellulose) (HPC)): 106 % of control | T/C (dose: 16.0 mg/kg/injection, schedule: Q01DX009 (sc), vehicle: other): 94 % of control | T/C (dose: 16.0 mg/kg/injection, schedule: Q03HX008 (ip), vehicle: other): 117 % of control | T/C (dose: 16.0 mg/kg/injection, schedule: Q03HX008 (oral), vehicle: Klucel (hydroxypropylcellulose) (HPC)): 95 % of control | T/C (dose: 16.0 mg/kg/injection, schedule: Q03HX008 (oral), vehicle: other): 104 % of control | T/C (dose: 16.0 mg/kg/injection, schedule: Q03HX016 (ip), vehicle: other): 123 % of control | T/C (dose: 16.0 mg/kg/injection, schedule: Q03HX016 (oral), vehicle: Klucel (hydroxypropylcellulose) (HPC)): 102 % of control | T/C (dose: 16.0 mg/kg/injection, schedule: Q03HX016 (oral), vehicle: other): 115 % of control | T/C (dose: 16.0 mg/kg/injection, schedule: Q03HX024 (ip), vehicle: Klucel (hydroxypropylcellulose) (HPC)): 174 % of control | T/C (dose: 16.0 mg/kg/injection, schedule: Q03HX024 (oral), vehicle: Klucel (hydroxypropylcellulose) (HPC)): 102 % of control | T/C (dose: 32.0 mg/kg/injection, schedule: Q01DX009 (ip), vehicle: Klucel (hydroxypropylcellulose) (HPC)): 177 % of control | T/C (dose: 32.0 mg/kg/injection, schedule: Q01DX009 (ip), vehicle: other): 102 % of control | T/C (dose: 32.0 mg/kg/injection, schedule: Q01DX009 (oral), vehicle: Klucel (hydroxypropylcellulose) (HPC)): 102 % of control | T/C (dose: 32.0 mg/kg/injection, schedule: Q01DX009 (oral), vehicle: other): 107 % of control | T/C (dose: 32.0 mg/kg/injection, schedule: Q01DX009 (sc), vehicle: Klucel (hydroxypropylcellulose) (HPC)): 114 % of control | T/C (dose: 32.0 mg/kg/injection, schedule: Q01DX009 (sc), vehicle: other): 117 % of control | T/C (dose: 32.0 mg/kg/injection, schedule: Q03HX008 (ip), vehicle: Klucel (hydroxypropylcellulose) (HPC)): 173 % of control | T/C (dose: 32.0 mg/kg/injection, schedule: Q03HX008 (oral), vehicle: Klucel (hydroxypropylcellulose) (HPC)): 99 % of control | T/C (dose: 32.0 mg/kg/injection, schedule: Q03HX008 (oral), vehicle: other): 122 % of control | T/C (dose: 32.0 mg/kg/injection, schedule: Q03HX016 (ip), vehicle: Klucel (hydroxypropylcellulose) (HPC)): 200 % of control | T/C (dose: 32.0 mg/kg/injection, schedule: Q03HX016 (oral), vehicle: Klucel (hydroxypropylcellulose) (HPC)): 110 % of control | T/C (dose: 32.0 mg/kg/injection, schedule: Q03HX024 (oral), vehicle: Klucel (hydroxypropylcellulose) (HPC)): 109 % of control | T/C (dose: 32.0 mg/kg/injection, schedule: Q03HX024 (oral), vehicle: other): 168 % of control | T/C (dose: 64.0 mg/kg/injection, schedule: Q01DX001 (ip), vehicle: Klucel (hydroxypropylcellulose) (HPC)): 113 % of control | T/C (dose: 64.0 mg/kg/injection, schedule: Q01DX001 (ip), vehicle: other): 99 % of control | T/C (dose: 64.0 mg/kg/injection, schedule: Q01DX001 (oral), vehicle: Klucel (hydroxypropylcellulose) (HPC)): 100 % of control | T/C (dose: 64.0 mg/kg/injection, schedule: Q01DX001 (oral), vehicle: other): 94 % of control | T/C (dose: 64.0 mg/kg/injection, schedule: Q01DX009 (ip), vehicle: Klucel (hydroxypropylcellulose) (HPC)): 194 % of control | T/C (dose: 64.0 mg/kg/injection, schedule: Q01DX009 (ip), vehicle: other): 120 % of control | T/C (dose: 64.0 mg/kg/injection, schedule: Q01DX009 (oral), vehicle: Klucel (hydroxypropylcellulose) (HPC)): 108 % of control | T/C (dose: 64.0 mg/kg/injection, schedule: Q01DX009 (oral), vehicle: other): 118 % of control | T/C (dose: 64.0 mg/kg/injection, schedule: Q03HX008 (oral), vehicle: Klucel (hydroxypropylcellulose) (HPC)): 108 % of control | T/C (dose: 64.0 mg/kg/injection, schedule: Q03HX016 (oral), vehicle: Klucel (hydroxypropylcellulose) (HPC)): 116 % of control | T/C (dose: 64.0 mg/kg/injection, schedule: Q03HX024 (oral), vehicle: Klucel (hydroxypropylcellulose) (HPC)): 119 % of control | T/C (dose: 64.0 mg/kg/injection, schedule: Q04DX003 (ip), vehicle: Klucel (hydroxypropylcellulose) (HPC)): 118 % of control | T/C (dose: 64.0 mg/kg/injection, schedule: Q04DX003 (ip), vehicle: other): 91 % of control | T/C (dose: 64.0 mg/kg/injection, schedule: Q04DX003 (oral), vehicle: Klucel (hydroxypropylcellulose) (HPC)): 100 % of control | T/C (dose: 64.0 mg/kg/injection, schedule: Q04DX003 (oral), vehicle: other): 117 % of control | T/C (dose: 64.0 mg/kg/injection, schedule: Q04DX003 (sc), vehicle: Klucel (hydroxypropylcellulose) (HPC)): 113 % of control | T/C (dose: 64.0 mg/kg/injection, schedule: Q04DX003 (sc), vehicle: other): 107 % of control | T/C (dose: 64.0 mg/kg/injection, schedule: Q08DX002 (ip), vehicle: Klucel (hydroxypropylcellulose) (HPC)): 118 % of control | T/C (dose: 64.0 mg/kg/injection, schedule: Q08DX002 (ip), vehicle: other): 100 % of control | T/C (dose: 64.0 mg/kg/injection, schedule: Q08DX002 (oral), vehicle: Klucel (hydroxypropylcellulose) (HPC)): 102 % of control | T/C (dose: 64.0 mg/kg/injection, schedule: Q08DX002 (oral), vehicle: other): 104 % of control | T/C (dose: 128.0 mg/kg/injection, schedule: Q01DX001 (ip), vehicle: Klucel (hydroxypropylcellulose) (HPC)): 121 % of control | T/C (dose: 128.0 mg/kg/injection, schedule: Q01DX001 (ip), vehicle: other): 104 % of control | T/C (dose: 128.0 mg/kg/injection, schedule: Q01DX001 (oral), vehicle: Klucel (hydroxypropylcellulose) (HPC)): 99 % of control | T/C (dose: 128.0 mg/kg/injection, schedule: Q01DX001 (oral), vehicle: other): 108 % of control | T/C (dose: 128.0 mg/kg/injection, schedule: Q01DX009 (oral), vehicle: Klucel (hydroxypropylcellulose) (HPC)): 109 % of control | T/C (dose: 128.0 mg/kg/injection, schedule: Q03HX008 (oral), vehicle: Klucel (hydroxypropylcellulose) (HPC)): 110 % of control | T/C (dose: 128.0 mg/kg/injection, schedule: Q03HX016 (oral), vehicle: Klucel (hydroxypropylcellulose) (HPC)): 122 % of control | T/C (dose: 128.0 mg/kg/injection, schedule: Q04DX003 (ip), vehicle: other): 109 % of control | T/C (dose: 128.0 mg/kg/injection, schedule: Q04DX003 (oral), vehicle: Klucel (hydroxypropylcellulose) (HPC)): 105 % of control | T/C (dose: 128.0 mg/kg/injection, schedule: Q04DX003 (oral), vehicle: other): 122 % of control | T/C (dose: 128.0 mg/kg/injection, schedule: Q04DX003 (sc), vehicle: Klucel (hydroxypropylcellulose) (HPC)): 115 % of control | T/C (dose: 128.0 mg/kg/injection, schedule: Q04DX003 (sc), vehicle: other): 114 % of control | T/C (dose: 128.0 mg/kg/injection, schedule: Q08DX002 (ip), vehicle: other): 94 % of control | T/C (dose: 128.0 mg/kg/injection, schedule: Q08DX002 (oral), vehicle: Klucel (hydroxypropylcellulose) (HPC)): 106 % of control | T/C (dose: 256.0 mg/kg/injection, schedule: Q01DX001 (ip), vehicle: other): 105 % of control | T/C (dose: 256.0 mg/kg/injection, schedule: Q01DX001 (oral), vehicle: Klucel (hydroxypropylcellulose) (HPC)): 101 % of control | T/C (dose: 256.0 mg/kg/injection, schedule: Q01DX009 (oral), vehicle: Klucel (hydroxypropylcellulose) (HPC)): 116 % of control | T/C (dose: 256.0 mg/kg/injection, schedule: Q01DX009 (sc), vehicle: Klucel (hydroxypropylcellulose) (HPC)): 91 % of control | T/C (dose: 256.0 mg/kg/injection, schedule: Q04DX003 (ip), vehicle: Klucel (hydroxypropylcellulose) (HPC)): 168 % of control | T/C (dose: 256.0 mg/kg/injection, schedule: Q04DX003 (ip), vehicle: other): 109 % of control | T/C (dose: 256.0 mg/kg/injection, schedule: Q04DX003 (oral), vehicle: Klucel (hydroxypropylcellulose) (HPC)): 107 % of control | T/C (dose: 256.0 mg/kg/injection, schedule: Q04DX003 (oral), vehicle: other): 95 % of control | T/C (dose: 256.0 mg/kg/injection, schedule: Q04DX003 (sc), vehicle: Klucel (hydroxypropylcellulose) (HPC)): 122 % of control | T/C (dose: 256.0 mg/kg/injection, schedule: Q08DX002 (ip), vehicle: other): 108 % of control | T/C (dose: 256.0 mg/kg/injection, schedule: Q08DX002 (oral), vehicle: Klucel (hydroxypropylcellulose) (HPC)): 106 % of control | T/C (dose: 512.0 mg/kg/injection, schedule: Q01DX001 (oral), vehicle: Klucel (hydroxypropylcellulose) (HPC)): 102 % of control | T/C (dose: 512.0 mg/kg/injection, schedule: Q04DX003 (oral), vehicle: Klucel (hydroxypropylcellulose) (HPC)): 116 % of control | T/C (dose: 512.0 mg/kg/injection, schedule: Q08DX002 (ip), vehicle: Klucel (hydroxypropylcellulose) (HPC)): 185 % of control | T/C (dose: 512.0 mg/kg/injection, schedule: Q08DX002 (oral), vehicle: Klucel (hydroxypropylcellulose) (HPC)): 108 % of control | T/C (dose: 1024.0 mg/kg/injection, schedule: Q01DX001 (oral), vehicle: Klucel (hydroxypropylcellulose) (HPC)): 101 % of control | T/C (dose: 1024.0 mg/kg/injection, schedule: Q04DX003 (oral), vehicle: Klucel (hydroxypropylcellulose) (HPC)): 106 % of control | T/C (dose: 1024.0 mg/kg/injection, schedule: Q04DX003 (sc), vehicle: Klucel (hydroxypropylcellulose) (HPC)): 123 % of control | T/C (dose: 1024.0 mg/kg/injection, schedule: Q08DX002 (oral), vehicle: Klucel (hydroxypropylcellulose) (HPC)): 115 % of control

From PubChem BioAssay AID330 (DTP/NCI, 2004)
